Results reported in patent EP0076478A1, “Linear kinetic determination of bicarbonate in body fluids” (BOEHRINGER MANNHEIM CORPORATION, priority 1981, dated 1983).

Tests used:
Type in all cases: biochemical
[1] = target: T1, MDH (porcine heart) (Sus scrofa, UniProt P00346); experiment: Separate enzyme assay of MDH in the presence of varying amounts of oxamate
T1 construct: purchased Boehringer Mannheim Corporation, Indianapolis, Indiana
T1 sequence (P00346 25-338): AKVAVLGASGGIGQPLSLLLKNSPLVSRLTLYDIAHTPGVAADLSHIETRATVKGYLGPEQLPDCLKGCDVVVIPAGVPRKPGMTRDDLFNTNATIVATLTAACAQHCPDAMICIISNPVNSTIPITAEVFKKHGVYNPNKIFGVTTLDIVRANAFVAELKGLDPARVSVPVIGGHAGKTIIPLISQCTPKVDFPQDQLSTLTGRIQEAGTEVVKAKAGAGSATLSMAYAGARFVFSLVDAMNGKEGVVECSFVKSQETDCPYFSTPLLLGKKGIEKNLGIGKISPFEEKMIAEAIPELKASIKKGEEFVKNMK

[2] = test system: PEPC (wheat germ); experiment: Separate enzyme assay of PEPC in the presence of varying amounts of oxamate; conditions: for PEPC % Activity: average of three replicates
[3] = test system: LDH; experiment: Inhibition of reaction III (oxidation of NADH by pyruvate, catalysed by serum LDH) by oxamate; conditions: for NADH oxidized: 10 minutes, 340 nm, 37°C
Experimental: Using the same materials and methodology of the end-point determination described in Example III, the effectiveness of oxamate as an inhibitor of reaction III was determined. First, reaction III was followed by […] of oxamate to serum.with normal and supranormal LDH activities up to 2000 U/1 (one U/1 is an enzyme activity unit which catalyzes the transformation of one micromole per liter of pyruvate per minute at 37°C). In order to magnify the spectrophotometric signal, the sample volume was increased from 7.5 microliters to 50 microliters. The oxidation of NADH was followed for 10 minutes at 340 nm and 37°C, and the concentration of NADH oxidized was calculated from the change in absorbance over the 10 minute period.

[4] = concentrations of oxamate up to 40 mmol/l

NC(=O)C(=O)[O-].[Na+] [oxamate, sodium oxamate]
activity at 5000 µM ([1]; Oxamate 5 mmol/l, average of three replicates): 102 ± 2% | activity at 10000 µM ([1]; Oxamate 10 mmol/l, average of three replicates): 102 ± 2% | activity at 20000 µM ([1]; Oxamate 20 mmol/l, average of three replicates): 99 ± 1% | activity at 40000 µM ([1]; Oxamate 40 mmol/l, average of three replicates): 98 ± 5% | activity at 80000 µM ([1]; Oxamate 80 mmol/l, average of three replicates): 92 ± 2% | effect on MDH [1, 4]: no effect | effect on MDH ([1]; varying amounts of oxamate): no significant effect | PEPC % Activity ([2]; Oxamate 5 mmol/l): 102 ± 2% | PEPC % Activity ([2]; Oxamate 10 mmol/l): 95 ± 11% | PEPC % Activity ([2]; Oxamate 20 mmol/l): 103 ± 1% | PEPC % Activity ([2]; Oxamate 40 mmol/l): 99 ± 2% | PEPC % Activity ([2]; Oxamate 80 mmol/l): 86 ± 4% | effect on PEPC [2, 4]: no effect | effect on PEPC ([2]; varying amounts of oxamate): no significant effect | NADH oxidized ([3]; 2.5 mmol/l oxamate, serum LDH 282 U/l, 2 mmol/l pyruvate added): 0 µmol/L | NADH oxidized ([3]; 2.5 mmol/l oxamate, serum LDH 334 U/l, 2 mmol/l pyruvate added): 1.3 µmol/L | NADH oxidized ([3]; 2.5 mmol/l oxamate, serum LDH 340 U/l, 2 mmol/l pyruvate added): 1.3 µmol/L | NADH oxidized ([3]; 2.5 mmol/l oxamate, serum LDH 402 U/l, 2 mmol/l pyruvate added): 0 µmol/L | NADH oxidized ([3]; 2.5 mmol/l oxamate, serum LDH 508 U/l, 2 mmol/l pyruvate added): 3.5 µmol/L | NADH oxidized ([3]; 2.5 mmol/l oxamate, serum LDH 600 U/l, 2 mmol/l pyruvate added): 2.6 µmol/L | NADH oxidized ([3]; 2.5 mmol/l oxamate, serum LDH 1200 U/l, 2 mmol/l pyruvate added): 7.7 µmol/L | NADH oxidized ([3]; 2.5 mmol/l oxamate, serum LDH 1470 U/l, sample not spiked with pyruvate): 1.0 µmol/L | NADH oxidized ([3]; 2.5 mmol/l oxamate, serum LDH normal (average of 10 normal sera), 2 mmol/l pyruvate added): 1.4 µmol/L | NADH oxidized ([3]; 5 mmol/l oxamate, serum LDH 282 U/l, 2 mmol/l pyruvate added): 0 µmol/L | NADH oxidized ([3]; 5 mmol/l oxamate, serum LDH 334 U/l, 2 mmol/l pyruvate added): 0.3 µmol/L | NADH oxidized ([3]; 5 mmol/l oxamate, serum LDH 340 U/l, 2 mmol/l pyruvate added): 0 µmol/L | NADH oxidized ([3]; 5 mmol/l oxamate, serum LDH 402 U/l, 2 mmol/l pyruvate added): 0 µmol/L | NADH oxidized ([3]; 5 mmol/l oxamate, serum LDH 508 U/l, 2 mmol/l pyruvate added): 0.3 µmol/L | NADH oxidized ([3]; 5 mmol/l oxamate, serum LDH 600 U/l, 2 mmol/l pyruvate added): 0.2 µmol/L | NADH oxidized ([3]; 5 mmol/l oxamate, serum LDH 1200 U/l, 2 mmol/l pyruvate added): 0.9 µmol/L | NADH oxidized ([3]; 5 mmol/l oxamate, serum LDH 1470 U/l, sample not spiked with pyruvate): 0 µmol/L | NADH oxidized ([3]; 5 mmol/l oxamate, serum LDH normal (average of 10 normal sera), 2 mmol/l pyruvate added): 0.5 µmol/L | NADH oxidized ([3]; 10 mmol/l oxamate, serum LDH 282 U/l, 2 mmol/l pyruvate added): 0 µmol/L | NADH oxidized ([3]; 10 mmol/l oxamate, serum LDH 334 U/l, 2 mmol/l pyruvate added): 0 µmol/L | NADH oxidized ([3]; 10 mmol/l oxamate, serum LDH 340 U/l, 2 mmol/l pyruvate added): 0 µmol/L | NADH oxidized ([3]; 10 mmol/l oxamate, serum LDH 402 U/l, 2 mmol/l pyruvate added): 0 µmol/L | NADH oxidized ([3]; 10 mmol/l oxamate, serum LDH 508 U/l, 2 mmol/l pyruvate added): 0.1 µmol/L | NADH oxidized ([3]; 10 mmol/l oxamate, serum LDH 600 U/l, 2 mmol/l pyruvate added): 0 µmol/L | NADH oxidized ([3]; 10 mmol/l oxamate, serum LDH 1200 U/l, 2 mmol/l pyruvate added): 0.3 µmol/L | NADH oxidized ([3]; 10 mmol/l oxamate, serum LDH 1470 U/l, sample not spiked with pyruvate): 0 µmol/L | NADH oxidized ([3]; 10 mmol/l oxamate, serum LDH 2000 U/l, 2 mmol/l pyruvate added): 0 µmol/L | NADH oxidized ([3]; 10 mmol/l oxamate, serum LDH normal (average of 10 normal sera), 2 mmol/l pyruvate added): 0.3 µmol/L | NADH oxidized ([3]; 20 mmol/l oxamate, serum LDH 282 U/l, 2 mmol/l pyruvate added): 0 µmol/L | NADH oxidized ([3]; 20 mmol/l oxamate, serum LDH 334 U/l, 2 mmol/l pyruvate added): 0 µmol/L | NADH oxidized ([3]; 20 mmol/l oxamate, serum LDH 340 U/l, 2 mmol/l pyruvate added): 0 µmol/L | NADH oxidized ([3]; 20 mmol/l oxamate, serum LDH 402 U/l, 2 mmol/l pyruvate added): 0 µmol/L | NADH oxidized ([3]; 20 mmol/l oxamate, serum LDH 508 U/l, 2 mmol/l pyruvate added): 0 µmol/L | NADH oxidized ([3]; 20 mmol/l oxamate, serum LDH 600 U/l, 2 mmol/l pyruvate added): 0 µmol/L | NADH oxidized ([3]; 20 mmol/l oxamate, serum LDH 1200 U/l, 2 mmol/l pyruvate added): 0 µmol/L | NADH oxidized ([3]; 20 mmol/l oxamate, serum LDH 1470 U/l, sample not spiked with pyruvate): 0 µmol/L | NADH oxidized ([3]; 20 mmol/l oxamate, serum LDH 2000 U/l, 2 mmol/l pyruvate added): 0 µmol/L | NADH oxidized ([3]; 20 mmol/l oxamate, serum LDH normal (average of 10 normal sera), 2 mmol/l pyruvate added): 0 µmol/L | LDH activity ([3]; oxamate concentration of 10-20 mmol/l): completely inhibited
